Reference: ChEMBL document CHEMBL3885861, “Open TG-GATES”

Organism: Rattus norvegicus
Assay: Open TG-GATES - Regimen: Daily Repeat
Format: toxicity, organism-based, Sprague-Dawley
Set-up: regimen Daily Repeat, gender Male, age 6 weeks
Settings: in vivo, po, route gavage; for APTT / Bas / Eos / Fbg / Hb / Ht / Lym / MCH / MCHC / MCV / Mono / Neu / PT / Plat / RBC / Ret / WBC: tissue Blood; for A/G / ALP / ALT / AST / BUN / CRE / Ca / Cl / DBIL / GLC / IP / K / LDH / Na / PL / RALB / TBIL / TC / TG / TP / gamma-GTP: tissue Plasma
[1] = 0 mg/kg, 72 h, dose level Control, time 3 day
[2] = 0 mg/kg, […], dose level Control, time 7 day
[3] = 0 mg/kg, […], dose level Control, time 14 day
[4] = 0 mg/kg, […], dose level Control, time 28 day
[5] = 10 mg/kg, 72 h, dose level Low, time 3 day
[6] = 10 mg/kg, […], dose level Low, time 7 day
[7] = 10 mg/kg, […], dose level Low, time 14 day
[8] = 10 mg/kg, […], dose level Low, time 28 day

SMILES: Cn1cc[nH]c1=S [METHIMAZOLE]
- TERMINAL_BW [1]: 217.3 g
- APTT [1]: 21.2 s
- Bas [1]: 0%
- Eos [1]: 1%
- Fbg [1]: 310.8 mg/dL
- Hb [1]: 13.8 g/dL
- Ht [1]: 38.2%
- Lym [1]: 84.8%
- MCH [1]: 22.7 pg
- MCHC [1]: 36.1%
- MCV [1]: 62.8 fL
- Mono [1]: 1.6%
- Neu [1]: 11.8%
- PT [1]: 16.2 s
- Plat [1]: 126.3 x10_4/uL
- RBC [1]: 609 x10_4/ul
- Ret [1]: 6.7%
- WBC [1]: 107.5 x10_2/uL
- A/G [1]: 1.3
- ALP [1]: 1736 IU/L
- ALT [1]: 41.4 IU/L
- AST [1]: 68 IU/L
- BUN [1]: 17 mg/dL
- CRE [1]: 0.1 mg/dL
- Ca [1]: 10.8 mg/dL
- Cl [1]: 105.8 meq/L
- DBIL [1]: 0.002 mg/dL
- GLC [1]: 190.8 mg/dL
- IP [1]: 6.8 mg/dL
- K [1]: 4.1 meq/L
- LDH [1]: 187.8 IU/L
- Na [1]: 141.8 meq/L
- PL [1]: 161 mg/dL
- RALB [1]: 3.2 g/dL
- TBIL [1]: 0.014 mg/dL
- TC [1]: 89.4 mg/dL
- TG [1]: 93.8 mg/dL
- TP [1]: 5.7 g/dL
- gamma-GTP [1]: 1.2 IU/L
- TERMINAL_BW [2]: 252.2 g
- TERMINAL_BW [3]: 307.5 g
- TERMINAL_BW [4]: 373.3 g
- APTT [2]: 20.9 s
- Bas [2]: 0%
- Eos [2]: 0.8%
- Fbg [2]: 321.4 mg/dL
- Hb [2]: 14.2 g/dL
- Ht [2]: 38.9%
- Lym [2]: 80.2%
- MCH [2]: 22.3 pg
- MCHC [2]: 36.5%
- MCV [2]: 60.9 fL
- Mono [2]: 2.6%
- Neu [2]: 15.6%
- PT [2]: 15.9 s
- Plat [2]: 115.9 x10_4/uL
- RBC [2]: 638 x10_4/ul
- Ret [2]: 5.8%
- WBC [2]: 112.3 x10_2/uL
- APTT [3]: 22.2 s
- Bas [3]: 0%
- Eos [3]: 0.6%
- Fbg [3]: 331.8 mg/dL
- Hb [3]: 13.7 g/dL
- Ht [3]: 39.4%
- Lym [3]: 80.6%
- MCH [3]: 20.5 pg
- MCHC [3]: 34.9%
- MCV [3]: 58.7 fL
- Mono [3]: 1.8%
- Neu [3]: 15.8%
- PT [3]: 16.3 s
- Plat [3]: 117.4 x10_4/uL
- RBC [3]: 672.6 x10_4/ul
- Ret [3]: 4.9%
- WBC [3]: 112.2 x10_2/uL
- APTT [4]: 22.6 s
- Bas [4]: 0%
- Eos [4]: 1%
- Fbg [4]: 316.6 mg/dL
- Hb [4]: 15.2 g/dL
- Ht [4]: 42.9%
- Lym [4]: 82.4%
- MCH [4]: 19.3 pg
- MCHC [4]: 35.3%
- MCV [4]: 54.7 fL
- Mono [4]: 2.2%
- Neu [4]: 13.2%
- PT [4]: 16.4 s
- Plat [4]: 97.4 x10_4/uL
- RBC [4]: 785.4 x10_4/ul
- Ret [4]: 2.6%
- WBC [4]: 113.4 x10_2/uL
- A/G [2]: 1.2
- ALP [2]: 1790.2 IU/L
- ALT [2]: 39 IU/L
- AST [2]: 75.8 IU/L
- BUN [2]: 17.2 mg/dL
- CRE [2]: 0.2 mg/dL
- Ca [2]: 10.6 mg/dL
- Cl [2]: 107 meq/L
- DBIL [2]: 0 mg/dL
- GLC [2]: 195.4 mg/dL
- IP [2]: 7.5 mg/dL
- K [2]: 4.1 meq/L
- LDH [2]: 290.8 IU/L
- Na [2]: 142.2 meq/L
- PL [2]: 163.4 mg/dL
- RALB [2]: 3 g/dL
- TBIL [2]: 0.002 mg/dL
- TC [2]: 84.8 mg/dL
- TG [2]: 126 mg/dL
- TP [2]: 5.5 g/dL
- gamma-GTP [2]: 1 IU/L
- A/G [3]: 1.1
- ALP [3]: 1783.8 IU/L
- ALT [3]: 42.8 IU/L
- AST [3]: 71 IU/L
- BUN [3]: 18.2 mg/dL
- CRE [3]: 0.2 mg/dL
- Ca [3]: 10.6 mg/dL
- Cl [3]: 106 meq/L
- DBIL [3]: 0 mg/dL
- GLC [3]: 182 mg/dL
- IP [3]: 7 mg/dL
- K [3]: 4.3 meq/L
- LDH [3]: 198.6 IU/L
- Na [3]: 142.2 meq/L
- PL [3]: 158.6 mg/dL
- RALB [3]: 3 g/dL
- TBIL [3]: 0.014 mg/dL
- TC [3]: 75.4 mg/dL
- TG [3]: 150.2 mg/dL
- TP [3]: 5.8 g/dL
- gamma-GTP [3]: 1.6 IU/L
- A/G [4]: 1.1
- ALP [4]: 1110.8 IU/L
- ALT [4]: 40.4 IU/L
- AST [4]: 65.8 IU/L
- BUN [4]: 18.4 mg/dL
- CRE [4]: 0.2 mg/dL
- Ca [4]: 10.5 mg/dL
- Cl [4]: 105.4 meq/L
- DBIL [4]: 0.002 mg/dL
- GLC [4]: 198.8 mg/dL
- IP [4]: 6.3 mg/dL
- K [4]: 4.4 meq/L
- LDH [4]: 191.8 IU/L
- Na [4]: 142.4 meq/L
- PL [4]: 149.2 mg/dL
- RALB [4]: 3.2 g/dL
- TBIL [4]: 0.002 mg/dL
- TC [4]: 65.8 mg/dL
- TG [4]: 168 mg/dL
- TP [4]: 6 g/dL
- gamma-GTP [4]: 1 IU/L
- TERMINAL_BW [5]: 223.1 g
- APTT [5]: 19.4 s
- Bas [5]: 0%
- Eos [5]: 1.2%
- Fbg [5]: 325.2 mg/dL
- Hb [5]: 13.7 g/dL
- Ht [5]: 38.6%
- Lym [5]: 81.8%
- MCH [5]: 21.9 pg
- MCHC [5]: 35.6%
- MCV [5]: 61.5 fL
- Mono [5]: 2.6%
- Neu [5]: 13.6%
- PT [5]: 16.4 s
- Plat [5]: 128.5 x10_4/uL
- RBC [5]: 628.2 x10_4/ul
- Ret [5]: 6.5%
- WBC [5]: 95 x10_2/uL
- A/G [5]: 1.1
- ALP [5]: 1789.2 IU/L
- ALT [5]: 40.8 IU/L
- AST [5]: 65.6 IU/L
- BUN [5]: 16.8 mg/dL
- CRE [5]: 0.1 mg/dL
- Ca [5]: 11.1 mg/dL
- Cl [5]: 106.8 meq/L
- DBIL [5]: 0 mg/dL
- GLC [5]: 184 mg/dL
- IP [5]: 6.3 mg/dL
- K [5]: 4.2 meq/L
- LDH [5]: 170 IU/L
- Na [5]: 141.8 meq/L
- PL [5]: 183 mg/dL
- RALB [5]: 3.1 g/dL
- TBIL [5]: 0.004 mg/dL
- TC [5]: 101.6 mg/dL
- TG [5]: 128.6 mg/dL
- TP [5]: 5.8 g/dL
- gamma-GTP [5]: 1.2 IU/L
- TERMINAL_BW [6]: 253.1 g
- TERMINAL_BW [7]: 300.3 g
- TERMINAL_BW [8]: 356.4 g
- APTT [6]: 20.3 s
- Bas [6]: 0%
- Eos [6]: 1%
- Fbg [6]: 333 mg/dL
- Hb [6]: 13.9 g/dL
- Ht [6]: 38.1%
- Lym [6]: 80%
- MCH [6]: 22.3 pg
- MCHC [6]: 36.4%
- MCV [6]: 61.3 fL
- Mono [6]: 2.6%
- Neu [6]: 15.6%
- PT [6]: 16.4 s
- Plat [6]: 121.5 x10_4/uL
- RBC [6]: 622.8 x10_4/ul
- Ret [6]: 5.6%
- WBC [6]: 102.3 x10_2/uL
- APTT [7]: 22.1 s
- Bas [7]: 0%
- Eos [7]: 0.8%
- Fbg [7]: 318.8 mg/dL
- Hb [7]: 14 g/dL
- Ht [7]: 40.7%
- Lym [7]: 85.2%
- MCH [7]: 20.1 pg
- MCHC [7]: 34.5%
- MCV [7]: 58.4 fL
- Mono [7]: 2%
- Neu [7]: 11.6%
- PT [7]: 16.5 s
- Plat [7]: 110.2 x10_4/uL
- RBC [7]: 697 x10_4/ul
- Ret [7]: 4.3%
- WBC [7]: 101.8 x10_2/uL
- APTT [8]: 23.7 s
- Bas [8]: 0%
- Eos [8]: 1%
- Fbg [8]: 306 mg/dL
- Hb [8]: 15 g/dL
- Ht [8]: 42.4%
- Lym [8]: 84.4%
- MCH [8]: 19.4 pg
- MCHC [8]: 35.4%
- MCV [8]: 54.8 fL
- Mono [8]: 2.4%
- Neu [8]: 11%
- PT [8]: 16.7 s
- Plat [8]: 87.5 x10_4/uL
- RBC [8]: 773 x10_4/ul
- Ret [8]: 2%
- WBC [8]: 108.5 x10_2/uL
- A/G [6]: 1.1
- ALP [6]: 1430.4 IU/L
- ALT [6]: 38 IU/L
- AST [6]: 65.8 IU/L
- BUN [6]: 17.4 mg/dL
- CRE [6]: 0.2 mg/dL
- Ca [6]: 10.8 mg/dL
- Cl [6]: 107.4 meq/L
- DBIL [6]: 0 mg/dL
- GLC [6]: 177.8 mg/dL
- IP [6]: 7.1 mg/dL
- K [6]: 4.1 meq/L
- LDH [6]: 232.4 IU/L
- Na [6]: 142 meq/L
- PL [6]: 171.8 mg/dL
- RALB [6]: 3 g/dL
- TBIL [6]: 0 mg/dL
- TC [6]: 90.8 mg/dL
- TG [6]: 149 mg/dL
- TP [6]: 5.9 g/dL
- gamma-GTP [6]: 1 IU/L
- A/G [7]: 1.1
- ALP [7]: 1277.4 IU/L
- ALT [7]: 40.6 IU/L
- AST [7]: 62.6 IU/L
- BUN [7]: 17.6 mg/dL
- CRE [7]: 0.2 mg/dL
- Ca [7]: 10.6 mg/dL
- Cl [7]: 106.6 meq/L
- DBIL [7]: 0 mg/dL
- GLC [7]: 176.8 mg/dL
- IP [7]: 6.1 mg/dL
- K [7]: 4.1 meq/L
- LDH [7]: 197.6 IU/L
- Na [7]: 142.2 meq/L
- PL [7]: 170.2 mg/dL
- RALB [7]: 3.2 g/dL
- TBIL [7]: 0.01 mg/dL
- TC [7]: 96 mg/dL
- TG [7]: 134 mg/dL
- TP [7]: 6.1 g/dL
- gamma-GTP [7]: 2 IU/L
- A/G [8]: 1.1
- ALP [8]: 1026.6 IU/L
- ALT [8]: 29.8 IU/L
- AST [8]: 51 IU/L
- BUN [8]: 19.2 mg/dL
- CRE [8]: 0.2 mg/dL
- Ca [8]: 10.7 mg/dL
- Cl [8]: 106.4 meq/L
- DBIL [8]: 0.002 mg/dL
- GLC [8]: 184.8 mg/dL
- IP [8]: 5.9 mg/dL
- K [8]: 4.1 meq/L
- LDH [8]: 143.8 IU/L
- Na [8]: 142.6 meq/L
- PL [8]: 160 mg/dL
- RALB [8]: 3.5 g/dL
- TBIL [8]: 0.004 mg/dL
- TC [8]: 81.2 mg/dL
- TG [8]: 165.4 mg/dL
- TP [8]: 6.6 g/dL
- gamma-GTP [8]: 1.8 IU/L
